Where “and” joins values, the source holds several entries; their conditions need not be identical. Equal values may be shown once.
Key:
NCI-H226 = experiment: NCI single-dose GI%, NSC lung; assay type: cell-based, human; conditions: 10.0 μM in one dose
EKVX = experiment: NCI single-dose GI%, NSC lung; assay type: cell-based, human; conditions: 10.0 μM in one dose
T-47D = experiment: NCI single-dose GI%, breast; assay type: cell-based, human; conditions: 10.0 μM in one dose
MOLT-4 = experiment: NCI single-dose GI%, leukemia; assay type: cell-based, human; conditions: MOLT-4, leukemia; 10.0 μM in one dose
NCI-H522 = experiment: NCI single-dose GI%, NSC lung; assay type: cell-based, human; conditions: 10.0 μM in one dose
K-562 = experiment: NCI single-dose GI%, leukemia; assay type: cell-based, human; conditions: K-562, leukemia; 10.0 μM in one dose
UACC-257 = experiment: NCI single-dose GI%, melanoma; assay type: cell-based, human; conditions: UACC-257, melanoma; 10.0 μM in one dose
59 cancer cell lines = experiment: NCI 59 cancer cell line panel, single dose; assay type: cell-based, human; conditions: 10 μM single dose; for MG% (mean growth percent): 59 cell lines
HL-60(TB) = experiment: NCI single-dose GI%, leukemia; assay type: cell-based, human; conditions: 10.0 μM in one dose
SNB-75 = experiment: NCI single-dose GI%, CNS; assay type: cell-based, human; conditions: SNB-75, CNS; 10.0 μM in one dose
A549/ATCC = experiment: NCI single-dose GI%, NSC lung; assay type: cell-based, human; conditions: 10.0 μM in one dose
RPMI-8226 = experiment: NCI single-dose GI%, leukemia; assay type: cell-based, human; conditions: RPMI-8226, leukemia; 10.0 μM in one dose
MCF7 = experiment: NCI single-dose GI%, breast; assay type: cell-based, human; conditions: 10.0 μM in one dose
PC-3 = experiment: NCI single-dose GI%, prostate; assay type: cell-based, human; conditions: PC-3, prostate; 10.0 μM in one dose
HCT-116 = experiment: NCI single-dose GI%, colon; assay type: cell-based, human; conditions: HCT-116, colon; 10.0 μM in one dose
HT29 = experiment: NCI single-dose GI%, colon; assay type: cell-based, human; conditions: 10.0 μM in one dose
MDA-MB-468 = experiment: NCI single-dose GI%, breast; assay type: cell-based, human; conditions: MDA-MB-468, breast; 10.0 μM in one dose
UO-31 = experiment: NCI single-dose GI%, renal; assay type: cell-based, human; conditions: UO-31, renal; 10.0 μM in one dose
SK-OV-3 = experiment: NCI single-dose GI%, ovarian; assay type: cell-based, human; conditions: SK-OV-3, ovarian; 10.0 μM in one dose
UACC-62 = experiment: NCI single-dose GI%, melanoma; assay type: cell-based, human; conditions: UACC-62, melanoma; 10.0 μM in one dose
MDA-MB-231/ATCC = experiment: NCI single-dose GI%, breast; assay type: cell-based, human; conditions: 10.0 μM in one dose
CAKI-1 = experiment: NCI single-dose GI%, renal; assay type: cell-based, human; conditions: CAKI-1, renal; 10.0 μM in one dose
BT-549 = experiment: NCI single-dose GI%, breast; assay type: cell-based, human; conditions: BT-549, breast; 10.0 μM in one dose
HOP-62 = experiment: NCI single-dose GI%, NSC lung; assay type: cell-based, human; conditions: HOP-62, NSC lung; 10.0 μM in one dose
leukemia HL-60 = experiment: cells; conditions: Homo sapiens, HL-60, 48 h, read-out: In vitro cytotoxicity IC50
Experimental: (§1) The antitumor experiment was conducted on 59 human tumor cell lines derived from nine different human tissues, following the procedure of the Drug Evaluation Branch at the NCI, Bethesda, MD.[33]

MDA-MB-231 = experiment: cells; conditions: Homo sapiens, MDA-MB-231, 48 h, read-out: In vitro cytotoxicity IC50
Experimental: as §1

in vitro = conditions: human
Experimental: (§2) A normal fibroblast-like fetal lung cell line (WI-38) was used to further investigate the therapeutic safety of the newly synthesized hybrids and evaluate their selective cytotoxicity toward normal and tumor cells.[33,77]
as §1

[1] = tested on: WI-38 normal fibroblast cells; experiment: in vitro; conditions: ratio of WI38 IC50 to cancer cell IC50 values
Experimental: as §2, §1

[2] = tested on: breast adenocarcinoma MCF-7; experiment: cells; conditions: Homo sapiens, MCF7, 48 h, read-out: In vitro cytotoxicity IC50, MCF-7; MTT, 48 h drug exposure; mean ± SD of three experiments
SK-MEL-5 = experiment: NCI single-dose GI%, melanoma; assay type: cell-based, human; conditions: SK-MEL-5, melanoma; 10.0 μM in one dose
SR = experiment: NCI single-dose GI%, leukemia; assay type: cell-based, human; conditions: 10.0 μM in one dose

COc1ccc(C2CC(c3ccccc3)=NN2C(=O)c2ccc(S(C)(=O)=O)cc2)cc1 (centres unmarked) [Compound 18j, (5-(4-Methoxyphenyl)-3-phenyl-4,5-dihydro-1H-pyrazol-1-yl)(4-(methylsulfonyl)phenyl)methanone]
GI% (NCI-H226): 11%
GI% (EKVX): 12%
GI% (T-47D): 16%
GI% (MOLT-4): 26%
GI% (NCI-H522): 14%
melting point: 258 to 260 °C
GI% (K-562): 13%
GI% (UACC-257): 14%
PCE (positive cytotoxic effect: ratio of cell lines with growth inhibition >10% to total cell lines) (59 cancer cell lines): 10/59
MG% (mean growth percent) (59 cancer cell lines): 97.16%
GI% (HL-60(TB)): 35%
GI% (SNB-75): 12%
GI% (A549/ATCC): 24%

CS(=O)(=O)c1ccc(C(=O)N2N=C(c3ccccc3)CC2c2ccc(Cl)cc2)cc1 (centres unmarked) [Compound 18b, (5-(4-Chlorophenyl)-3-phenyl-4,5-dihydro-1H-pyrazol-1-yl)(4-(methylsulfonyl)phenyl)methanone]
GI% (NCI-H226): 15%
GI% (RPMI-8226): 11%
GI% (MCF7): 13%
GI% (PC-3): 22%
GI% (EKVX): 21%
GI% (HCT-116): 26%
GI% (HT29): 13%
GI% (MDA-MB-468): 12%
GI% (T-47D): 31%
GI% (MOLT-4): 17%
GI% (UO-31): 32%
GI% (NCI-H522): 27%
melting point: 321 to 323 °C
GI% (K-562): 32%
PCE (positive cytotoxic effect: ratio of cell lines with growth inhibition >10% to total cell lines) (59 cancer cell lines): 22/59
MG% (mean growth percent) (59 cancer cell lines): 92.03%
GI% (HL-60(TB)): 22%
GI% (SK-OV-3): 26%
GI% (SNB-75): 13%
GI% (UACC-62): 14%
GI% (MDA-MB-231/ATCC): 11%
GI% (CAKI-1): 18%
GI% (BT-549): 14%
GI% (HOP-62): 29%
GI% (A549/ATCC): 13%

COc1cccc2c1C(=O)c1c(O)c3c(c(O)c1C2=O)C[C@@](O)(C(=O)CO)C[C@@H]3O[C@H]1C[C@H](N)[C@H](O)[C@H](C)O1 [DOX, doxorubicin, reference compound]
IC50 (leukemia HL-60): 6.01 ± 0.2 µM
IC50 (MDA-MB-231): 5.1 ± 0.31 µM
IC50 at 48 h (in vitro): 7.12 ± 0.7 µM
Mean tumor selectivity index (WI38/HL60, MCF7, and MDA-MB-231) [1]: 1.36
IC50 [2]: 4.77 ± 0.4 µM

CS(=O)(=O)c1ccc(C(=O)N2N=C(c3ccc(F)cc3)CC2c2ccc(F)cc2)cc1 (centres unmarked) [Compound 18e, (3,5-Bis(4-fluorophenyl)-4,5-dihydro-1H-pyrazol-1-yl)(4-(methylsulfonyl)phenyl)methanone]
GI% (NCI-H226): 12%
GI% (RPMI-8226): 12%
GI% (MCF7): 13%
GI% (PC-3): 15%
GI% (EKVX): 12%
GI% (HCT-116): 17%
GI% (T-47D): 17%
GI% (MOLT-4): 35%
GI% (UO-31): 22%
GI% (NCI-H522): 15%
melting point: 330 to 333 °C
GI% (K-562): 29%
PCE (positive cytotoxic effect: ratio of cell lines with growth inhibition >10% to total cell lines) (59 cancer cell lines): 15/59
MG% (mean growth percent) (59 cancer cell lines): 94.18%
GI% (HL-60(TB)): 48%
GI% (SNB-75): 18%
GI% (CAKI-1): 17%
GI% (HOP-62): 14%

COc1ccc(C2=NN(C(=O)c3ccc(S(C)(=O)=O)cc3)C(c3ccccc3)C2)cc1 (centres unmarked) [Compound 18k, (3-(4-Methoxyphenyl)-5-phenyl-4,5-dihydro-1H-pyrazol-1-yl)(4-(methylsulfonyl)phenyl)methanone]
GI% (NCI-H226): 14%
GI% (RPMI-8226): 11%
GI% (PC-3): 21%
GI% (SK-MEL-5): 14%
GI% (HT29): 20%
GI% (MDA-MB-468): 16%
GI% (MOLT-4): 27%
GI% (UO-31): 15%
GI% (NCI-H522): 35%
melting point: 226 to 228 °C
PCE (positive cytotoxic effect: ratio of cell lines with growth inhibition >10% to total cell lines) (59 cancer cell lines): ≤ 12/59 and 12/59
MG% (mean growth percent) (59 cancer cell lines): 97.49%
GI% (HL-60(TB)): 18%
GI% (SNB-75): 11%
GI% (A549/ATCC): 13%

COc1ccc(C2=NN(C(=O)c3ccc(S(C)(=O)=O)cc3)C(c3ccc(OC)cc3)C2)cc1 (centres unmarked) [Compound 18l, (3,5-Bis(4-methoxyphenyl)-4,5-dihydro-1H-pyrazol-1-yl)(4-(methylsulfonyl)phenyl)methanone]
GI% (MCF7): 11%
GI% (HT29): 19%
GI% (T-47D): 11%
GI% (MOLT-4): 33%
GI% (UO-31): 16%
GI% (NCI-H522): 34%
melting point: 198 to 200 °C
GI% (K-562): 18%
GI% (UACC-257): 45%
PCE (positive cytotoxic effect: ratio of cell lines with growth inhibition >10% to total cell lines) (59 cancer cell lines): 14/59
MG% (mean growth percent) (59 cancer cell lines): 95.78%
GI% (HL-60(TB)): 47%
GI% (SNB-75): 11%
GI% (CAKI-1): 14%
GI% (BT-549): 13%
GI% (HOP-62): 11%
GI% (A549/ATCC): 40%

COc1ccccc1C1CC(c2ccccc2)=NN1C(=O)c1ccc(S(C)(=O)=O)cc1 (centres unmarked) [Compound 18i, (5-(2-Methoxyphenyl)-3-phenyl-4,5-dihydro-1H-pyrazol-1-yl)(4-(methylsulfonyl)phenyl)methanone]
GI% (NCI-H226): 13%
GI% (EKVX): 12%
GI% (HT29): 17%
GI% (T-47D): 17%
GI% (MOLT-4): 28%
GI% (UO-31): 28%
GI% (NCI-H522): 29%
melting point: 236 to 238 °C
GI% (UACC-257): 36%
PCE (positive cytotoxic effect: ratio of cell lines with growth inhibition >10% to total cell lines) (59 cancer cell lines): ≤ 12/59 and 12/59
MG% (mean growth percent) (59 cancer cell lines): 96.46%
GI% (HL-60(TB)): 46%
GI% (CAKI-1): 23%
GI% (HOP-62): 20%
GI% (A549/ATCC): 35%

CN(C)C/C=C/C(=O)Nc1cc2c(Nc3ccc(F)c(Cl)c3)ncnc2cc1O[C@H]1CCOC1 [Afatinib, reference compound]
IC50 (leukemia HL-60): 6.5 ± 0.77 µM
IC50 (MDA-MB-231): 8.05 ± 0.72 µM
IC50 at 48 h (in vitro): 44 ± 1.9 µM
Mean tumor selectivity index (WI38/HL60, MCF7, and MDA-MB-231) [1]: 5.93
IC50 [2]: 7.91 ± 0.66 µM

COc1ccc(C2CC(c3ccc(OC)cc3OC)=NN2C(=O)c2ccc(S(C)(=O)=O)cc2)cc1 (centres unmarked) [Compound 18o, (3-(2,4-Dimethoxyphenyl)-5-(4-methoxyphenyl)-4,5-dihydro-1H-pyrazol-1-yl)(4-(methylsulfonyl)phenyl)methanone]
GI% (SK-MEL-5): 12%
GI% (HT29): 17%
GI% (T-47D): 18%
GI% (MOLT-4): 40%
GI% (UO-31): 19%
GI% (NCI-H522): 43%
melting point: 268 to 270 °C
GI% (K-562): 32%
GI% (UACC-257): 38%
PCE (positive cytotoxic effect: ratio of cell lines with growth inhibition >10% to total cell lines) (59 cancer cell lines): 15/59
MG% (mean growth percent) (59 cancer cell lines): 94.17%
GI% (HL-60(TB)): 51%
GI% (SR): 11%
GI% (SNB-75): 15%
GI% (CAKI-1): 12%
GI% (BT-549): 11%
GI% (HOP-62): 18%
GI% (A549/ATCC): 31%
